Source: the supplement of paper PMC10307832

Assays:
Test in all cases: relative viability (nuclei count vs DMSO), 5 days (fraction); higher = more cells survive
[1] = compound: CC(C)C[C@@H](C(=O)N[C@H](C(=O)OC1CCCC1)c1ccccc1)[C@H](O)C(=O)NO [Tosedostat] + CC(=O)c1c(C)c2cnc(Nc3ccc(N4CCNCC4)cn3)nc2n(C2CCCC2)c1=O [Palbociclib] (partner 0.5 µM)
In short: (§1)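 After 5 days of treatment, lung cancer cells in 1536-well plates were fixed and stained in a single step (final 0.05% Triton X-100, 1% formaldehyde, 1 ug/ml Hoechst) and their nuclei counted on 4× images. Treatment had been applied by pin tool the day after seeding as one drug alone or as a fixed anchor-drug dose with five library-drug doses (not always all listed) in √10 steps. Relative viability is the nuclei count of treated wells divided by that of vehicle wells, and values are medians of duplicate plates.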

[2] = compound: CC1=NN=C(O1)C2=NN=C(C=C2)N3CCC(CC3)OC4=C(C=CC(=C4)F)Cl + CC1(C)CCC(c2ccc(Cl)cc2)=C(CN2CCN(c3ccc(C(=O)NS(=O)(=O)c4ccc(N[C@H](CCN5CCOCC5)CSc5ccccc5)c(S(=O)(=O)C(F)(F)F)c4)cc3)CC2)C1 [Navitoclax] (partner 0.5 µM)
In short: as §1

[3] = compound: CC1=NN=C(O1)C2=NN=C(C=C2)N3CCC(CC3)OC4=C(C=CC(=C4)F)Cl + Cc1nc(Nc2ncc(C(=O)Nc3c(C)cccc3Cl)s2)cc(N2CCN(CCO)CC2)n1 [Dasatinib] (partner 0.075 µM)
In short: as §1

[4] = compound: CC1=NN=C(O1)C2=NN=C(C=C2)N3CCC(CC3)OC4=C(C=CC(=C4)F)Cl + CS(=O)(=O)N1CCN(Cc2cc3nc(-c4cccc5[nH]ncc45)nc(N4CCOCC4)c3s2)CC1 [Pictilisib] (partner 1 µM)
In short: as §1

UMC-11
relative viability ([1]; first compound 0.02 µM): 0.339 | relative viability ([1]; first compound 0.06325 µM): 0.341 | relative viability ([1]; first compound 0.2 µM): 0.299 | relative viability ([1]; first compound 0.6325 µM): 0.362 | relative viability ([1]; first compound 2 µM): 0.338 | relative viability ([2]; first compound 0.253 µM): 0.287 | relative viability ([2]; first compound 0.8 µM): 0.344 | relative viability ([2]; first compound 2.53 µM): 0.315 | relative viability ([2]; first compound 8 µM): 0.317 | relative viability ([3]; first compound 0.253 µM): 0.473 | relative viability ([3]; first compound 0.8 µM): 0.476 | relative viability ([3]; first compound 2.53 µM): 0.512 | relative viability ([3]; first compound 8 µM): 0.435 | relative viability ([4]; first compound 0.253 µM): 0.723 | relative viability ([4]; first compound 0.8 µM): 0.65 | relative viability ([4]; first compound 2.53 µM): 0.797 | relative viability ([4]; first compound 8 µM): 0.684
